Legend:
[1] = tested on: T98G cells; assay: Cell proliferation measurement (CellTiter-Glo, 72 h); format: cell-based; details: Homo sapiens, anti-proliferation, Brain (Glioblastoma)
Protocol: (§1) The antiproliferative activity of the compounds of the general formula (I) was examined in vitro in human cancer cells. […] After 24 h, cells on one plate (0 h plate) were treated with 30 μl/cavity of CTG solution (Promega Cell Titer Glo (catalogue #G755B and G756B)) and incubated at room temperature for 10 min, and luminescence was measured by means of a VICTOR V (Perkin Elmer), in order to determine cell viability on commencement of treatment. The cells on the test plate were treated with the compounds of the general formula (I) as and incubated at 37° C. for 72 h. The compounds were added to the cells by means of an HP D300 digital dispenser in a 10-step 2,5-fold dilution series generally starting at a maximum final drug concentration of 100 nM, or 30 μM in the case of COV318. As control, the cells were treated with vehicle (DMSO at 0.3% final concentration). After 72 h, the cells were treated with 30 μl/cavity of CTG solution (Promega Cell Titer Glo (catalogue #G755B and G756B)) and incubated at room temperature for 10 min, and luminescence was measured by means of a VICTOR V (Perkin Elmer), in order to determine cell viability at the end of treatment. The percentage effect on cell growth and the IC50 derived therefrom were determined for each test substance using the values from the 0 h plate (=maximum inhibition) and the DMSO control (=minimum inhibition). The IC50 values were calculated using a 4-parameter fit.

[2] = tested on: M059J cells; assay: as above; format: cell-based; details: Homo sapiens, anti-proliferation, Brain (Glioblastoma)
Protocol: as §1

[3] = tested on: YKG1 cells; assay: as above; format: cell-based; details: Homo sapiens, YKG-1, anti-proliferation, YKG1, Brain (Glioblastoma)
Protocol: as §1

[4] = tested on: 92.1 cells; assay: as above; format: cell-based; details: Homo sapiens, anti-proliferation, 92.1, Uveal melanoma
Protocol: as §1

[5] = tested on: Mel202 cells; assay: as above; format: cell-based; details: Homo sapiens, anti-proliferation, Mel202, Uveal melanoma
Protocol: as §1

[6] = tested on: U-251MG cells; assay: as above; format: cell-based; details: Homo sapiens, anti-proliferation, Brain (Glioblastoma: Astrocytoma)
Protocol: as §1

[7] = tested on: SW1783 cells; assay: as above; format: cell-based; details: Homo sapiens, anti-proliferation, SW1783, Brain (Anaplastic astrocytoma)
Protocol: as §1

[8] = tested on: IGR37 cells; assay: as above; format: cell-based; details: Homo sapiens, IGR-37, anti-proliferation, IGR37, Melanoma
Protocol: as §1

[9] = tested on: H4 cells; assay: as above; format: cell-based; details: Homo sapiens, anti-proliferation, H4, Brain (Astrocytoma)
Protocol: as §1

[10] = tested on: COV318 cells; assay: as above; format: cell-based; details: Homo sapiens, anti-proliferation, COV318, Ovarian cancer, maximum concentration 30 μM
Protocol: as §1

[11] = tested on: HeLa cells; assay: as above; format: cell-based; details: Homo sapiens, anti-proliferation
Protocol: as §1

[12] = tested on: SK-MEL-3 cells; assay: as above; format: cell-based; details: Homo sapiens, SK-MEL3; anti-proliferation, SK-MEL-3, 72 h
Protocol: as §1

[13] = tested on: LN229 cells; assay: as above; format: cell-based; details: Homo sapiens, LN-229, anti-proliferation, LN229, Brain (Glioblastoma)
Protocol: as §1

[14] = tested on: U118-MG cells; assay: as above; format: cell-based; details: Homo sapiens, U-118-MG, anti-proliferation, Brain (Glioblastoma: Astrocytoma)
Protocol: as §1

[15] = tested on: DKMG cells; assay: as above; format: cell-based; details: Homo sapiens, anti-proliferation, Brain (Glioblastoma)
Protocol: as §1

[16] = tested on: GB1 cells; assay: as above; format: cell-based; details: Homo sapiens, GB-1, anti-proliferation, GB1, Brain (Glioblastoma)
Protocol: as §1

[17] = tested on: 42-MG-BA cells; assay: as above; format: cell-based; details: Homo sapiens, anti-proliferation, Brain (Glioblastoma)
Protocol: as §1

[18] = tested on: PFSK cells; assay: as above; format: cell-based; details: Homo sapiens, anti-proliferation, Brain (Primitive neuroectodermal tumor)
Protocol: as §1

[19] = tested on: GAMG cells; assay: as above; format: cell-based; details: Homo sapiens, anti-proliferation, Brain (Glioblastoma)
Protocol: as §1

[20] = tested on: DBTRG05MG cells; assay: as above; format: cell-based; details: Homo sapiens, DBTRG-05MG, anti-proliferation, Brain (Glioblastoma)
Protocol: as §1

[21] = In vivo pharmacokinetics in dogs (i.v.); details: Dog/female/Beagle, 0.3 mg/kg i.v., PEG400 50% + Water 40% + EtOH 10%
Protocol: For in vivo pharmacokinetic experiments test compounds were administered to female CD-1 mice, male Wistar rats, Beagle dogs or Cynomolgus monkeys intravenously at doses of 0.3 to 1 mg/kg formulated as solutions using solubilizers such as PEG400 in well-tolerated amounts.
Studies may also have been performed as cassette administrations of up to 3 compounds given together simultaneously in low doses.
For pharmacokinetics after intravenous administration test compounds were given in the female mice and male rat as i.v. bolus and in dogs and monkeys as short term infusion (15 min). Blood samples were taken e.g. at 2 min, 8 min, 15 min, 30 min, 45 min, 1 h, 2 h, 4 h, 6 h, 8 h and 24 h after dosing from the vena jugularis (mouse, rat) or vena saphena (dog, monkey). […] PK parameters were calculated by non-compartmental analysis using a PK calculation software (e.g. Phoenix WinNonlin®, Certara USA, Inc.).
PK parameters derived from concentration-time profiles after i.v.: CLplasma (in L/kg/h): Total plasma clearance of test compound calculated by dose (in μg/kg) divided by area under the concentration-time curve from t=0 h to infinity (extrapolated) (AUCinf in μg*h/L); CLblood: Total blood clearance of test compound: CLplasma*Cp/Cb (in L/kg/h) with Cp/Cb being the ratio of test compound concentrations in plasma and blood. […]

For `C[C@@H]1NC(=O)NN=C1c1ccc(-n2ccc(C(F)(F)F)n2)c(C(F)(F)F)c1` [Example 1, (5S)-5-methyl-6-{3-(trifluoromethyl)-4-[3-(trifluoromethyl)-1H-pyrazol-1-yl]phenyl}-4,5-dihydro-1,2,4-triazin-3(2H)-one], the IC50 [1] was > 100 nM, the IC50 [2] was 40.5 nM and the IC50 [3] was > 100 nM. The IC50 [4] was 19.4 nM, the IC50 [5] was 74.2 nM and the IC50 [6] was > 100 nM. The IC50 [7] was > 100 nM, the IC50 [8] was 4.01 nM and the IC50 [9] was 47.7 nM. The IC50 [10] was 8.93 µM, the IC50 [11] was 1.5 nM and the IC50 [12] was 4 nM. For the same compound, the IC50 [13] was > 100 nM, the IC50 [14] was > 100 nM and the IC50 [15] was 16.6 nM. For the same compound, the IC50 [16] was 8.96 nM, the IC50 [17] was > 100 nM and the IC50 [18] was 2.95 nM. For the same compound, the IC50 [19] was > 100 nM, the IC50 [20] was 30.5 nM and the CLblood [21] was 0.27 L/h/kg.
